Test [1] relates to neosubstrate degradation. The conditions noted are these: more potent in cells than lenalidomide; see Ref. 13; cited from earlier work.
Test [2] deals with MHHCALL4 cells. In words: Cell proliferation assay (Cell Titer-Glo), MHH-CALL-4 cells. It is filed as cell-based, human. The conditions noted are these: 72 h incubation; for EC50: Homo sapiens. The method, then: (§1) MV-4-11 cell line was purchased from the American Type Culture Collection (ATCC, Manassas, VA) and maintained in Iscove's Modified Dulbecco's medium (IMDM; (ATCC) supplemented with 10% FBS. MHHCALL4 cell line was purchased from the German Collection of Microorganisms and Cell Cultures GmbH (DSMZ) and maintained in RPMI 1640 medium supplemented with 10% fetal bovine serum (HyClone), penicillin/streptomycin (100 U/mL), and glutamine ([…]) at 37° C. in a humidified 5% C02 incubator. Exponentially growing MV-4-11 cells were plated at 1250 cells per well and MHH-CALL-4 cells were plated at 7,500 cells per well in Corning 8804BC white 384-well assay plates and incubated overnight at 37° C. in a humidified 5% CO2 incubator. Compounds were transferred to the assay plate from a dose-response plate using a Pintool on a Biomek FXP Laboratory Automation Workstation (Beckman Coulter). Cytotoxicity was determined following 72 hours of incubation using Promega Cell Titer Glo reagent according to the manufacturer's recommendation. Luminescence was measured on an Envision plate reader (Perkin-Elmer).
(§2) Compounds were screened in human cancer cell lines and each cell line was cultured in the complete medium recommended by the vendor and seeded in Corning 8804BC white 384-well assay plates at density of 1250 cells per well for MV-4-11 cells and of 7,500 cells per well for MHH-CALL-4 cells. After overnight incubation at 37° C. in a humidified 5% CO2 incubator, cells were treated with compounds in dose-response format using a Pintool on a Biomek FXP Laboratory Automation Workstation (Beckman Coulter). After 72 h incubation, cell proliferation was assessed using Cell Titer-Gbo (CTG) luminescent cell viability assay (Promega) according to the manufacturer's instruction. Luminescence signal was measured using an Envision plate reader (Perkin-Elmer).
On the technique in general: ATP-based viability assays read luminescence as a measure of living cells.

The subject of test [3] is MV-4-11 cells. In words: Cell proliferation assay (Cell Titer-Glo), MV-4-11 cells. It is filed as cell-based. Conditions: Homo sapiens, MV4-11; MV411 cells, 72 h incubation. The method, then:
as §1, §2

The target in test [4] is T1, hGSPT1 (Homo sapiens, UniProt P15170+Q96SW2).
T1 construct: host or cells: HEK293
T1 sequence (P15170 whole entry): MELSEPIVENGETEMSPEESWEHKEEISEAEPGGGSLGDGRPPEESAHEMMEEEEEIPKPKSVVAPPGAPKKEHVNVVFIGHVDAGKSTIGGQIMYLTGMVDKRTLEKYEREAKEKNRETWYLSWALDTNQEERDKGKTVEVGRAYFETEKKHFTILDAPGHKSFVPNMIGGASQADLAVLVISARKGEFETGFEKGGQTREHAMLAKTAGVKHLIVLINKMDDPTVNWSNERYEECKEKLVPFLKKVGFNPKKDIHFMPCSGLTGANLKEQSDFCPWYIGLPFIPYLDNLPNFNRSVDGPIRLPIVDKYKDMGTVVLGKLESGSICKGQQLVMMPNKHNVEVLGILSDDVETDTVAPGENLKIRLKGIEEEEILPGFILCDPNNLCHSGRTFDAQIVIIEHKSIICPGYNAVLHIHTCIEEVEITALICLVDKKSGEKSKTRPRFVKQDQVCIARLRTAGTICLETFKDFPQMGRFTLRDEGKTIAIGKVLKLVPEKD
T1 sequence (Q96SW2 whole entry): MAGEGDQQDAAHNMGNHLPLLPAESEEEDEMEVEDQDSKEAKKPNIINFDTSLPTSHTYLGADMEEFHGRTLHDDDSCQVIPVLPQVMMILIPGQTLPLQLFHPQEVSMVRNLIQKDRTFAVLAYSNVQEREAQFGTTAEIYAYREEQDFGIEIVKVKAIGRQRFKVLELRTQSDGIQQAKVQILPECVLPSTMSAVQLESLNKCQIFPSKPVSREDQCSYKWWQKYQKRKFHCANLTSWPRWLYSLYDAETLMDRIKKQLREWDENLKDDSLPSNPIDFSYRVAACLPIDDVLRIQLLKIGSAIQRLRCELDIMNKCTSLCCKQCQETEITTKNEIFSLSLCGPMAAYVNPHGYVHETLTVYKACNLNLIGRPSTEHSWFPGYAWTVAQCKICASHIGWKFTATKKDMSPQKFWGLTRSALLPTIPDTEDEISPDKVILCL
T1 sequence (Q16531 whole entry partner): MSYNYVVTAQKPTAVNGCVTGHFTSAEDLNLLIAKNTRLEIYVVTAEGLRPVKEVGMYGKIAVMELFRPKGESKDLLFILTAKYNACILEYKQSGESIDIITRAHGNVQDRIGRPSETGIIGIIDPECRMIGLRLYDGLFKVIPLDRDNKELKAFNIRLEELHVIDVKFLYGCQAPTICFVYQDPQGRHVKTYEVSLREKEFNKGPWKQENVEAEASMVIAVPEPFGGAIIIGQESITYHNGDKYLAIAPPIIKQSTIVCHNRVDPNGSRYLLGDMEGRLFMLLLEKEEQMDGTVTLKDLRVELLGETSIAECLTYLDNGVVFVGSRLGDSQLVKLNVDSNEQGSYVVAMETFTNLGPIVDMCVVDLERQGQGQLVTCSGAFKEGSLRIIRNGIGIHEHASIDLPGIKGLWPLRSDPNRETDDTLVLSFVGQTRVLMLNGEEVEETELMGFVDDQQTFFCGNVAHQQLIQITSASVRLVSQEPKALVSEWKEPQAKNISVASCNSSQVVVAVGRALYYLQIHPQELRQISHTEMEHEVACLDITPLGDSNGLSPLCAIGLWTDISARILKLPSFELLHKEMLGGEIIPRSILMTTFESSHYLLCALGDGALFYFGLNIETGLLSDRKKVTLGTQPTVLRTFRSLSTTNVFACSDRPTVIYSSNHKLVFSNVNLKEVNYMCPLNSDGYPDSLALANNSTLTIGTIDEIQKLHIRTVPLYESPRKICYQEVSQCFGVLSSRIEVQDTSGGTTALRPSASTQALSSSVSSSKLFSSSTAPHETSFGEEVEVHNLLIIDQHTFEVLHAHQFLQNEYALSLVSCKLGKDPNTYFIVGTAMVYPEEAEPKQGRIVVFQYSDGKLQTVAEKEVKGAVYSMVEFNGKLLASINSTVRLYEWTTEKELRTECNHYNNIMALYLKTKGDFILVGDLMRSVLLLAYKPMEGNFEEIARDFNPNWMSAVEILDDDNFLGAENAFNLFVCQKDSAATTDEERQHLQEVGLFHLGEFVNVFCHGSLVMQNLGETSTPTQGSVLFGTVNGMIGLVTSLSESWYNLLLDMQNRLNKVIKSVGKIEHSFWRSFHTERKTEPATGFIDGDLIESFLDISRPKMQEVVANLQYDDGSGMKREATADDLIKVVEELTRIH
In words: hGSPT1 HiBiT assay (level of GSPT1 HiBiT tag protein, Nano-Glo HiBiT Lytic Detection). It is filed as cell-based. The conditions noted are these: HEK293 hGSPT1 HiBiT tag cells, 4 hrs incubation. The procedure:
HEK293 hGSPT1 HiBiT tag cells were seeded in white 384-well assay plates at density of 800 cells per well in triplicates. After overnight incubation, cells were treated with compounds in dose-response format using a Pintool on a Biomek FXP Laboratory Automation Workstation (Beckman Coulter). After 4 hrs incubation, the level of GSPT1 HiBiT tag protein was evaluated using Nano-Glo® HiBiT Lytic Detection System (Promega) according to the manufacturer's instruction. Luminescence signal was measured using an Envision plate reader (Perkin-Elmer).
A general note: The HiBiT peptide binds its large partner to form an active luciferase.

For `O=C1CC[C@H](N2Cc3c(OCc4ccc(CN5CCOCC5)cc4)cccc3C2=O)C(=O)N1` [CC-220], in test [1], the “potency in cells relative to lenalidomide” value is reported as 10 fold.
In general, EC50 refers to the concentration at which the effect is half-maximal. A lower EC50 goes with a more potent agent. Consider `CC(C)NC(=O)Cc1ccc2c(c1)CN(C1CCC(=O)NC1=O)C2=O` (stereo not drawn) [Compound 6], for which the EC50 in test [2] is greater than 8500 nM; in test [3], greater than 6900 nM.
As to `O=C1CCC(N2Cc3cc(CC(=O)NC4CCCCC4)ccc3C2=O)C(=O)N1` (stereo not drawn) [Compound 2], the DC50 in test [4] was greater than 7100 nM. In addition, the “MHHCALL4 Cell Proliferation Assay, result in words” value in test [2] (printed in place of an EC50) is reported as “cytostatic at 10 nM”. The compound further registered an EC50 in test [3] greater than 5800 nM.
`O=C(Cc1ccc2c(c1)CN(C1CCC(=O)NC1=O)C2=O)NCc1ccccc1` (stereo not drawn) [Compound 1] showed a DC50 in test [4] of less than 1 nM. Further, the EC50 in test [2] and in test [3] was less than 1 nM in each case.
On to `COc1ccc(NC(=O)Cc2ccc3c(c2)CN(C2CCC(=O)NC2=O)C3=O)cc1` (stereo not drawn) [Compound 13], for which the DC50 in test [4] was less than 1 nM. Also, the EC50 in test [2] and in test [3] was less than 1 nM throughout.
Compound `O=C(Cc1ccc2c(c1)CN(C1CCC(=O)NC1=O)C2=O)NCc1cccc(C(F)(F)F)c1` (stereo not drawn) [Compound 10] yielded a DC50 in test [4] of less than 1 nM. In addition, the EC50 in test [2] and in test [3] was less than 1 nM each time.
As for `O=C(Cc1ccc2c(c1)CN(C1CCC(=O)NC1=O)C2=O)NCCc1ccccc1` (stereo not drawn) [Compound 11], the DC50 in test [4] is less than 1 nM. In test [2], this compound registered an EC50 of less than 1 nM.
For the compound `O=C(Cc1ccc2c(c1)CN(C1CCC(=O)NC1=O)C2=O)NCc1ccc(F)cc1` (stereo not drawn) [Compound 9], the DC50 in test [4] was less than 1 nM. The EC50 in test [2] is less than 1 nM; in test [3], 3 nM.
For the compound `O=C(Cc1ccc2c(c1)CN(C1CCC(=O)NC1=O)C2=O)NCC1CC1` (stereo not drawn) [Compound 7], the EC50 in test [2] was greater than 10100 nM; in test [3], greater than 8200 nM.
As to `O=C1CCC(N2Cc3cc(CC(=O)Nc4ccccc4)ccc3C2=O)C(=O)N1` (stereo not drawn) [Compound 17], the DC50 in test [4] was greater than 8100 nM. Further, the EC50 in test [2] is 4 nM; in test [3], 744 nM.
`CCN(CC)C(=O)Cc1ccc2c(c1)CN(C1CCC(=O)NC1=O)C2=O` (stereo not drawn) [Compound 5] yielded an EC50 in test [3] greater than 1730 nM.
Regarding `O=C(Cc1ccc2c(c1)CN(C1CCC(=O)NC1=O)C2=O)NCc1ccc(Cl)cc1` (stereo not drawn) [Compound 16], in test [4], the DC50 is less than 1 nM. The EC50 in test [2] is less than 1 nM.
Consider `CCN(C(=O)Cc1ccc2c(c1)CN(C1CCC(=O)NC1=O)C2=O)c1ccccc1` (stereo not drawn) [Compound 3], for which the EC50 in test [2] was greater than 10700 nM; in test [3] it was greater than 8700 nM.
On the same counts, the results for `COCCNC(=O)Cc1ccc2c(c1)CN(C1CCC(=O)NC1=O)C2=O` (stereo not drawn) [Compound 4] are greater than 8200 nM and greater than 6700 nM.
In test [4], `O=C(Cc1ccc2c(c1)CN(C1CCC(=O)NC1=O)C2=O)NCc1cccc2ccccc12` (stereo not drawn) [Compound 12] displayed a DC50 of less than 1 nM. The values for the EC50 in test [2] and in test [3] were less than 1 nM and 5 nM, respectively.
For the compound `O=C1CCC(N2Cc3cc(CC(=O)N4CCCCC4)ccc3C2=O)C(=O)N1` (stereo not drawn) [Compound 15], the EC50 is greater than 10700 nM in test [2] and greater than 8700 nM in test [3].
In test [4], `O=C1CCC(N2Cc3cc(CC(=O)Nc4cccc(Cl)c4)ccc3C2=O)C(=O)N1` (stereo not drawn) [Compound 20] yielded a DC50 of less than 1 nM. For the same compound, the half-maximal effective concentration (EC50) in test [2] was less than 1 nM; in test [3], 5 nM.
On to `O=C1CCC(N2Cc3cc(CC(=O)Nc4ccc(N5CCCCC5)cc4)ccc3C2=O)C(=O)N1` (stereo not drawn) [Compound 23], for which the DC50 in test [4] is less than 1 nM. Moreover, the EC50 is less than 1 nM in test [2] and 2 nM in test [3].
As for `COc1cccc(NC(=O)Cc2ccc3c(c2)CN(C2CCC(=O)NC2=O)C3=O)c1` (stereo not drawn) [Compound 19], the half-maximal effective concentration (EC50) in test [2] is less than 1 nM; in test [3], 5 nM.
As to `Cc1ccc(CNC(=O)Cc2ccc3c(c2)CN(C2CCC(=O)NC2=O)C3=O)cc1` (stereo not drawn) [Compound 8], the DC50 in test [4] was less than 1 nM. Further, the EC50 in test [2] and in test [3] was less than 1 nM in each case.
`O=C1CCC(N2Cc3cc(CC(=O)Nc4cccc(OCc5ccccc5)c4)ccc3C2=O)C(=O)N1` (stereo not drawn) [Compound 22]: in test [4], the DC50 is less than 1 nM. Moreover, the EC50 in test [2] and in test [3] was less than 1 nM throughout.
On to `O=C1CCC(N2Cc3cc(CC(=O)Nc4cccc(F)c4)ccc3C2=O)C(=O)N1` (stereo not drawn) [Compound 21], for which the DC50 in test [4] is greater than 3110 nM. Besides, the EC50 was less than 1 nM in test [2] and greater than 4500 nM in test [3].
On to `O=C1CCC(N2Cc3cc(CC(=O)N4CCOCC4)ccc3C2=O)C(=O)N1` (stereo not drawn) [Compound 14], for which the DC50 in test [4] is greater than 2700 nM. In addition, the values for the EC50 in test [2] and in test [3] were 21 nM and greater than 2200 nM, respectively.
On the same counts, the results for `Cc1ccccc1NC(=O)Cc1ccc2c(c1)CN(C1CCC(=O)NC1=O)C2=O` (stereo not drawn) [Compound 18] are greater than 5970 nM, 2 nM and greater than 4900 nM.

Values taken from US20250034107A1, “SUBSTITUTED 2-(2-(2,6-DIOXOPIPERIDIN-3-YL)-1- OXOISOINDOLIN-5-YL) ACETAMIDE ANALOGS AS MODULATORS OF GSPT1 AND/OR IKZF1 PROTEIN” (St. Jude Children's Research Hospital, Inc., priority 2021, published 2025).
